These results are taken from patent publication US20260088124A1, “TRANSCRIPTOMIC CLOCKS OF BIOLOGICAL AGE AND LIFESPAN” (The Brigham and Women's Hospital, Inc., priority 2022, published 2026).

Experiment [1] deals with 25-month-old C57BL/6JNia mice. The experiment can be described thus: Survival study of old mice with compound added to the diet. The note with it: compound added to diet from 25 months of age; log-rank p-value <0.05; FIGS. 6F-H. Format: in vivo, mouse.
The subject of a further experiment is young UM-HET3 male mice. In words: Transcriptomic clock of expected maximum lifespan applied to liver and kidney of mice given compounds for 1 month. The note with it: 1 month treatment, data pooled across tissues, adjusted p-value <0.05, FIG. 6E. The format is in vivo, mouse. The source says: To examine if longevity of rodents can be predicted based on gene expression data, we used 1,030 liver samples of mice and rats with known maximum lifespan to construct transcriptomic clock of expected lifespan.
To test if the constructed clock can be used to identify new longevity interventions, we applied it to the liver and kidney samples obtained from young UM-HET3 male mice subjected to 25 different compounds for 1 month together with age-matched controls. These compounds were chosen using a CMAP platform^30 and gene expression signatures of longevity identified in our previous studies^31.

In the next experiment the test system is mouse tissues. The experiment can be described thus: Change of biological age (tAge), lifespan-adjusted multi-tissue transcriptomic clock applied to RNAseq datasets of treated mice (ClockBase). The format is in vivo. The note with it: for effect on biological age (tAge) versus age-matched control mice: statistically significant effect on tAge, FIG. 6A. An excerpt:
Preprocessing of the data prior to applying the clock included filtering of low-expressed genes using soft threshold (genes with less than 5 reads in more than 80% of samples were removed), mapping of gene IDs to the mouse Entrez IDs, RLE normalization (for RNA-seq data), log-transformation, scaling and ranking/YuGene transformation (optionally, for the corresponding clock models). Missing values corresponding to the clock genes not detected in the data were imputed with the average values precalculated during the training of the clock model.
Preprocessed gene expression profiles were used as an input for the clock, and tAges were returned by the model as an output. Differences between tAges of control and treated groups were assessed using linear regression model (for OSKM reprogramming datasets) and independent t-tests (for other applications). When multiple comparisons were assessed, obtained p-values were adjusted with Benjamini-Hochberg method.
To discover candidate interventions that slow down biological aging and extend mammalian lifespan and healthspan, we utilized ClockBase^25 and processed 1,349 publicly available RNAseq datasets corresponding to mouse tissues exposed to various pharmacological, dietary and genetic interventions. For every intervention, we used gene expression data to calculate tAges of subjected mice and compared them with tAges of age-matched control mice. […] In addition to the well-known lifespan-extending interventions, such as rapamycin, they included β3-adrenoceptor agonist CL 316,243^26,27 and the cardiac glycoside ouabain^28.

The subject of another experiment is 30-month-old mice. In words: Healthspan of old mice (gait speed, frailty index). Format: in vivo, mouse.
For experiment [2] the following is noted: cited from earlier work.
The next experiment relates to aged rodents. The note with it: cited from earlier work.

With `COc1ccc(-c2ccc3c(N4CCOC[C@@H]4C)nc(N4CCOC[C@@H]4C)nc3n2)cc1CO` [AZD-8055], the “lifespan of old male mice (survival)” value in experiment [1] is “significantly extended lifespan”. Further, in the experiment with young UM-HET3 male mice, the “predicted effect on expected (maximum) lifespan according to the transcriptomic longevity clock” value (“predicted effect on expected” for short) was “predicted to be beneficial for mouse longevity”.

`C[C@H](Cc1ccc2c(c1)OC(C(=O)[O-])(C(=O)[O-])O2)NC[C@H](O)c1cccc(Cl)c1.[Na+].[Na+]` [CL 316,243]: in the experiment on mouse tissues, the “effect on biological age (tAge) versus age-matched control mice” value was “decrease in biological age”.

On to `COc1ccc(-c2ccc3c(N4CCOCC4)nc(N4C[C@@H](C)O[C@@H](C)C4)nc3n2)cc1CO` [KU-0063794], for which the “lifespan of old male mice (survival)” value in experiment [1] is on record as “significantly extended lifespan”. The “predicted effect on expected” value in the experiment on young UM-HET3 male mice is “predicted to be beneficial for mouse longevity”. For the same compound, in the experiment with 30-month-old mice, the frailty index entry is “decreased” and the gait speed result is recorded as “improved”.

Take `CCCCCCCCCCCCCCCC(=O)OC[C@H](O)[C@H]1OC(=O)C(O)=C1O` [ascorbyl-palmitate]: the “predicted effect on expected” value in the experiment on young UM-HET3 male mice was “predicted to be beneficial for mouse longevity”.

On to `C[C@@H]1O[C@@H](O[C@H]2C[C@@H](O)[C@]3(CO)[C@H]4[C@H](O)C[C@]5(C)[C@@H](C6=CC(=O)OC6)CC[C@]5(O)[C@@H]4CC[C@]3(O)C2)[C@H](O)[C@H](O)[C@H]1O` [ouabain], for which, in experiment [2], the senolytic activity result is “exhibit senolytic activity”. Moreover, the “physical function of aged rodents” value in the experiment on aged rodents was “improve physical function”. In the experiment with mouse tissues (3-month treatment, 24-month-old mice, liver, FIG. 6B), the “reduction of biological age” value is reported as around 20%. Further, the “effect on biological age (tAge) versus age-matched control mice” value in the experiment with mouse tissues is on record as “decrease in biological age”.

Turning to `Cc1onc(-c2ccccc2)c1-c1ccc(S(N)(=O)=O)cc1` [valdecoxib], the “predicted effect on expected” value in the experiment with young UM-HET3 male mice was “predicted to be beneficial for mouse longevity”.

Take interleukin 6: interleukin 6 injection: in the experiment on mouse tissues, the “effect on biological age (tAge) versus age-matched control mice” value is given as “increase of biological age”.
